In patent US20230028441A1, “NOVEL HETEROARYL-TRIAZOLE COMPOUNDS AS PESTICIDES” (Bayer Aktiengesellschaft, priority 2019, published 2023):

What was measured:
Type in all cases: in vivo
[1] = system: larvae of the banded cucumber beetle (Diabrotica balteata); experiment: Diabrotica balteata spray test; conditions: 168 h, 100 g/ha (=32 μg/well), after 7 days, wheat seeds, read-out: efficacy (seedlings grown up)
Method in brief: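 Germinated wheat seedlings (5 per well, agar plates) sprayed with compound in acetone/DMF diluted in water with 1000 ppm emulsifier, then infested with 10-20 larvae per unit. Efficacy scored after 7 days as % seedling growth relative to untreated, uninfested control (100% = normal growth, 0% = none).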

[2] = system: adult unfed cat fleas (Ctenocephalides felis); experiment: Ctenocephalides felis oral test; conditions: 48 h, 100 ppm in cattle blood, after 2 days
Method in brief: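 About 20 adult unfed Ctenocephalides felis fed through parafilm on cattle blood dosed with compound (DMSO stock diluted in blood), blood chamber at 37°C, fleas at room temperature. Mortality (%) scored after 2 days; 100% means all fleas killed.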

[3] = system: green peach aphid (Myzus persicae); experiment: Myzus persicae oral test; conditions: 120 h
Experimental: Solvent: 100 parts by weight acetone
To produce a suitable preparation of active compound, 1 part by weight of active compound is mixed with the stated amount of solvent, and the concentrate is diluted with water to the desired concentration.
50 μL compound solution is filled in microtiter plates and 150 μL IPL41 insect medium (33%+15% sugar) is added to obtain a total volume of 200 μL per well. Afterwards the plates are sealed with parafilm through which a mixed population of the green peach aphid (Myzus persicae) can suck on the compound preparation.
(§1) After 5 days mortality in % is determined. 100% means all aphids have been killed and 0% means none of the aphids have been killed.

[4] = system: larvae of the southern green stink bug (Nezara viridula); experiment: Nezara viridula spray test; conditions: in Hordeum vulgare, 96 h
Method in brief: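 Barley plants infested with Nezara viridula larvae were sprayed with compound in acetone/dimethylformamide, diluted in water containing 1000 ppm alkylarylpolyglycol ether emulsifier. Mortality (%) was scored after 4 days; 100% means all stink bugs killed.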

[5] = system: fall armyworm larvae (Spodoptera frugiperda); experiment: Spodoptera frugiperda spray test (maize leaf sections); conditions: 168 h
Method in brief: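 Maize leaf sections were sprayed with compound formulated in acetone/DMF and diluted in water containing 1000 ppm emulsifier. Once dry, sections were infested with fall armyworm larvae. Mortality (%) was scored after 7 days.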

[6] = system: adult cat fleas (Ctenocephalides felis); experiment: Ctenocephalides felis in-vitro contact test, adult cat flea; conditions: 5 μg/cm^2 (=500 g/ha), after 48 hours, read-out: efficacy (fleas dead or moribund)
Experimental: 9 mg compound is solved in 1 mL acetone and diluted with acetone to the desired concentration. 250 μL of the test solution is filled in 25 mL glass test tubes and homogeneously distributed on the inner walls by rotation and tilting on a shaking device (2 h at 30 rpm). With a compound concentration of 900 ppm, an inner surface of 44.7 cm^2 and a homogeneous distribution, a dose of 5 μg/cm^2 is achieved.
After the solvent has evaporated, each test tube is filled with 5-10 adult cat fleas (Ctenocephalides felis), closed with a perforated lid and incubated in a lying position at room temperature and relative humidity. After 48 hours efficacy is determined. The fleas are patted on the ground of the tubes and are incubated on a heating plate at 45-50° C. for at most 5 minutes. Immotile or uncoordinated moving fleas, which are not able to escape the heat by climbing upwards, are marked as dead or moribund.
An efficacy of 100% means all fleas are dead or moribund; 0% means no fleas are dead or moribund.

[7] = system: green peach aphid (Myzus persicae); experiment: Myzus persicae spray test; conditions: foliar, 120 h, after 5 days, Chinese cabbage leaf disks
Experimental: Solvent: 78.0 parts by weight acetone • 1.5 parts by weight dimethylformamide
(§2) Emulsifier: alkylarylpolyglycol ether
(§3) To produce a suitable preparation of active compound, 1 part by weight of active compound is mixed with the stated amount of solvents and is diluted with water, containing an emulsifier concentration of 1000 ppm, to the desired concentration. Further test concentrations are prepared by dilution with emulsifier containing water.
Chinese cabbage (Brassica pekinensis) leaf disks infected with all instars of the green peach aphid (Myzus persicae), are sprayed with a preparation of the active ingredient of the desired concentration.
as §1

[8] = system: adult engorged female ticks (Rhipicephalus microplus); experiment: Rhipicephalus (Boophilus) microplus injection test; conditions: 168 h, egg deposition after 7 days, read-out: efficacy (infertile eggs); for pest or weed control at 0.004 mg: 4 μg/animal
Method in brief: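 Compound was dissolved in DMSO at 10 mg per 0.5 mL and diluted with DMSO to the test concentration. Five engorged adult females received a 1 μL abdominal injection and were kept in a climate chamber. After 7 days, fertile egg deposition was scored, with unclear eggs held until hatching at about 42 days; 100% efficacy means all eggs were infertile.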

[9] = system: cattle tick larvae (Rhipicephalus microplus), strain Parkhurst, resistant against synthetic pyrethroids; experiment: Rhipicephalus (Boophilus) microplus in-vitro contact test, larval cattle tick; conditions: 5 μg/cm^2 (=500 g/ha), after 48 hours, read-out: efficacy (larvae dead or moribund)
Method in brief: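 Acetone solutions of compound were coated on glass tube walls (900 ppm giving 5 μg/cm^2) and dried. 20–50 pyrethroid-resistant Parkhurst larvae were held per tube at 27° C and 85% relative humidity; after 48 h negative geotaxis scored efficacy as percent larvae dead or moribund.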

[10] = system: adult brown dog ticks (Rhipicephalus sanguineus); experiment: Rhipicephalus sanguineus in-vitro contact test with adult brown dog ticks; conditions: after 48 hours, read-out: efficacy (ticks dead or moribund); for pest or weed control at 1 µg/cm2, 100 g/ha: 1 μg/cm^2 (=100 g/ha); for pest or weed control at 5 µg/cm2, 500 g/ha: 5 μg/cm^2 (=500 g/ha)
Method in brief: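 Compound in acetone coated onto glass tube inner walls at 900 ppm, giving 5 μg/cm^2. Adult ticks (5-10 per tube) held at room temperature for 48 h, then placed on a 45-50° C. heating plate for up to 5 min. Ticks unable to climb away counted dead or moribund; efficacy given as % dead/moribund.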

[11] = system: caterpillars of the fall army worm (Spodoptera frugiperda); experiment: Spodoptera frugiperda spray test (cotton leaves); conditions: 168 h
Experimental: Solvent: 14 parts by weight of dimethylformamide
Emulsifier: alkylaryl polyglycol ether
as §3, with “solvent” for “solvents”, “water. Ammonium salt and/or penetration enhancer in a dosage of 1000 ppm are added to the desired concentration if necessary.” for “water.”
Cotton leaves (Gossypium hirsutum) are treated by being sprayed with the preparation of the active compound of the desired concentration and are infested with caterpillars of the fall army worm (Spodoptera frugiperda).
After 7 days mortality in % is determined. 100% means all the caterpillars have been killed and 0% means none of the caterpillars have been killed.

[12] = system: brown planthopper (Nilaparvata lugens); experiment: Nilaparvata lugens spray test; conditions: in Oryza sativa, 96 h
Experimental: Solvent: 78.0 parts by weight of acetone • • 1.5 parts by weight of dimethylformamide
as §2, §3
Rice plants (Oryza sativa) are sprayed with a preparation of the active ingredient of the desired concentration and the plants are infested with the brown planthopper (Nilaparvata lugens).
After 4 days mortality in % is determined. 100% means all planthoppers have been killed and 0% means none of the planthoppers have been killed.

| Compound | pest or weed control at 32 µg/disc, 100 g/ha [1] | mortality at 100 ppm [2] | mortality at 4 ppm [3] | mortality at 100 g/ha [4] | mortality at 100 g/ha [5] | pest or weed control at 5 µg/cm2 [6] | mortality at 100 g/ha [7] | pest or weed control at 0.004 mg [8] | pest or weed control at 5 µg/cm2 [9] | pest or weed control at 1 µg/cm2, 100 g/ha [10] | pest or weed control at 5 µg/cm2, 500 g/ha [10] | mortality at 500 g/ha [5] | pest or weed control at 0.02 mg ([8]; 20 μg/animal) | mortality at 20 ppm [11] | mortality at 500 g/ha [4] | mortality at 500 g/ha ([7]; 500 g/ha) | mortality at 500 g/ha [12] |
| --- | --- | --- | --- | --- | --- | --- | --- | --- | --- | --- | --- | --- | --- | --- | --- | --- | --- |
| CC(NC(=O)c1cc(C(F)(F)F)cc(C(F)(F)F)c1)c1nc(N)nn1-c1ncccn1 (stereo not drawn) [I-007] | 100% | 100% | 100% | 100% | 100% | 100% | 90% | 100% | 100% | 100% | 100% |  |  |  |  |  |  |
| CC(NC(=O)c1cc(Cl)cc(C(F)(F)F)c1)c1nc(NC(=O)C2CC2)nn1-c1ccc(Cl)cn1 (stereo not drawn) [I-015] |  | 100% |  |  | 100% |  |  | 100% |  |  |  | 100% | 100% | 100% |  |  |  |
| CC(NC(=O)c1cc(Cl)cc(OC(F)(F)F)c1)c1nc(N)nn1-c1ncccn1 (stereo not drawn) [I-090] | 100% | 100% |  |  | 100% | 90% | 90% | 100% | 90% |  |  |  |  |  |  |  |  |
| CC(NC(=O)c1cc(Br)cc(OC(F)(F)F)c1)c1nc(N)nn1-c1ncccn1 (stereo not drawn) [I-095] | 100% |  | 100% |  |  | 90% |  |  | 100% |  |  |  |  |  | 90% | 90% |  |
| CNc1nc([C@H](C)NC(=O)c2cc(C(F)(F)F)cc(C(F)(F)F)c2)n(-c2ncccn2)n1 [I-127, N-[(1S)-1-[5-(methylamino)-2-pyrimidin-2-yl-1,2,4-triazol-3-yl]ethyl]-3,5-bis(trifluoromethyl)benzamide] | 100% |  |  |  | 100% | 100% | 90% |  | 100% | 100% | 100% |  |  |  | 100% |  | 90% |
| C[C@H](NC(=O)c1cc(C(F)(F)F)cc(C(F)(F)F)c1)c1nc(N)nn1-c1ncccn1 [I-134, N-[(1S)-1-(5-amino-2-pyrimidin-2-yl-1,2,4-triazol-3-yl)ethyl]-3,5-bis(trifluoromethyl) benzamide] | 100% |  |  |  | 100% | 100% | 100% |  | 100% | 100% | 100% |  |  |  | 100% |  | 100% |
| CNc1nc([C@H](C)NC(=O)c2cc(Br)cc(OC(F)(F)F)c2)n(-c2ccc(C#N)cn2)n1 [I-142] | 100% |  |  |  | 100% |  |  |  |  |  |  |  |  | 100% | 100% |  |  |
| CNc1nc([C@H](C)NC(=O)c2cc(Br)cc(Br)c2)n(-c2ccc(C#N)cn2)n1 [I-143] | 100% |  |  |  | 100% |  |  |  |  |  |  |  |  | 100% | 100% |  |  |
| C[C@H](NC(=O)c1cc(Cl)cc(S(C)(=O)=O)c1)c1nc(N)nn1-c1ccc(C#N)cn1 [I-148, N-[(1S)-1-[5-amino-2-(5-cyano-2-pyridyl)-1,2,4-triazol-3-yl]ethyl]-3-chloro-5-methylsulfonyl-benzamide] | 100% |  |  |  | 100% |  | 90% |  | 90% |  |  |  |  |  | 100% |  | 100% |
| CON(C)c1nc([C@H](C)NC(=O)c2cc(Cl)cc(C(C)(C)C#N)c2)n(-c2ncccn2)n1 [I-163] | 100% |  |  |  | 100% |  | 100% |  |  |  |  |  |  |  | 100% |  | 100% |
| CC(NC(=O)c1cc(C(F)(F)F)cc(C(F)(F)F)c1)c1nc(N(C)C)nn1-c1ncc(Cl)cn1 (stereo not drawn) [I-165] | 100% |  |  |  | 100% |  | 90% |  |  |  |  |  |  |  | 100% |  | 100% |
| C[C@H](NC(=O)c1cc(Cl)cc(C(C)(C)C#N)c1)c1nc(N(C)C)nn1-c1ncc(Cl)cn1 [I-178] | 100% |  |  |  | 100% |  | 90% |  |  |  |  |  |  |  | 100% |  | 100% |
| C[C@H](NC(=O)c1cc(Cl)cc(S(C)(=O)=O)c1)c1nc(N(C)C)nn1-c1ncc(Cl)cn1 [I-179] | 100% |  |  |  | 100% |  | 90% |  |  |  |  |  |  |  | 100% |  | 100% |
| C[C@H](NC(=O)c1cc(OC(F)(F)F)cc(S(=O)(=O)C2CC2)c1)c1nc(N)nn1-c1ncccn1 [I-187] | 100% |  |  |  |  |  | 90% |  |  |  |  |  |  |  | 100% |  | 100% |
| CC(NC(=O)c1cc(OC(F)(F)F)cc(S(C)(=O)=O)c1)c1nc(N(C)C)nn1-c1ncc(Cl)cn1 (stereo not drawn) [I-192] | 100% |  |  |  | 100% |  | 90% |  |  |  |  |  |  |  | 100% |  | 100% |
| CNc1nc([C@H](C)NC(=O)c2cc(Cl)cc(S(=O)(=O)C(F)F)c2)n(-c2ncccn2)n1 [I-202] | 100% |  |  |  | 100% |  | 90% |  |  |  |  |  |  |  | 100% |  | 100% |
